Columns and labels:
[1] = Example 8d: phenyl salicylate solubility in neon-lamp conditioned vs unconditioned acetone at room temperature; format: physicochemical; conditions: equilibrated about 20 hours
Protocol: Acetone (about 1 ml) was pipetted into small glass test tubes and stoppers placed in the tube. […] Tubes were conditioned under a neon lamp; (about 8 mW/cm^2) in an otherwise dark room for about 1.5 hours at about 28° C. ambient temperature. Tubes were also placed simultaneously in an incubator at about 28° C. for about 1.5 hours.
Phenyl salicylate (about 3.50 grams) was added to each tube leaving a layer undissolved on the bottom of each tube. The solutions were allowed to equilibrate overnight (about 20 hours). Solution was filtered over the crystals and 0.500 ml pipetted into fresh tubes.
After the acetone evaporated, dry weights of phenyl salicylate per ml dissolved in conditioned and unconditioned acetone were determined.

[2] = Example 8c: sugar solubility in sodium-lamp conditioned vs control water at room temperature; format: physicochemical; conditions: for Percent sugar by weight: 23.5° C.
Protocol: Source, Greeneville Municipal Water supply, Greeneville, Tenn. […] Length 12″.
One beaker “KK” was placed under a sodium lamp 112 for about three hours, as configured in FIG. 97f, while the other Beaker “IL” functioning as the control was placed in an incubator for about three hours at an internal temperature of about 28° C.
Sugar (about 300 grams) was then added to each beaker and stirred.

Average amount of phenyl salicylate dissolved ([1]; acetone conditioned under neon lamp about 1.5 hours) [g/mL] | Average amount of phenyl salicylate dissolved ([1]; unconditioned acetone (incubator about 1.5 hours)) [g/mL] | Percent sugar by weight ([2]; Beaker KK: water under Na lamp three hours) [%] | Percent sugar by weight ([2]; Beaker LL: control water 3 hours in incubator) [%] | More sucrose by weight dissolved by conditioned water than by unconditioned control water ([2]; after three hours exposure of the water to the sodium lamp) | Structure (SMILES)
0.78 | 0.68 |  |  |  | O=C(Oc1ccccc1)c1ccccc1O [phenyl salicylate, Phenyl salicylate]
 |  | 39.1 | 36.7 | about 2.4% | OC[C@H]1O[C@@](CO)(O[C@H]2O[C@H](CO)[C@@H](O)[C@H](O)[C@H]2O)[C@@H](O)[C@@H]1O [sucrose, Sucrose]

From patent US7972390B2, “Methods for controlling crystal growth, crystallization, structures and phases in materials and systems” (GR Intellectual Reserve, LLC, priority 2003, dated 2011)
